The values below come from ChEMBL document CHEMBL1137044, “Benzothiophene and naphthalene derived constrained SERMs” (Bioorg Med Chem Lett, 2004).

Assay [1] addresses T1, Estrogen receptor (Homo sapiens, UniProt Q92731+P03372). It is filed as functional, cell-based. To be noted: ishikawa.
Assay [2] is described as follows: Inhibition of [3H]estradiol binding to Estrogen receptor alpha.
Assay [3] concerns the target T1, Estrogen receptor. The assay can be described thus: Antagonist effect against 10 pM 17-beta-estradiol induced MCF-7 cell proliferation. It is filed as functional, cell-based.
The target in assay [4] is T1, Estrogen receptor. The assay can be described thus: Agonist activity as alkaline phosphatase induction in Ishikawa endometrial cells compared to E2. It is filed as functional, cell-based.
The nature of assay [5]: Inhibition of [3H]estradiol binding to Estrogen receptor beta.

In the case of `Oc1ccc2c(c1)sc1cc3ccc(O)cc3c(-c3ccc(C(O)CCN4CCCCC4)cc3)c12` (stereo not drawn), the results for the IC50 in assay [1] and in assay [3] were 690 nM and 1 nM, respectively. Moreover, the Ki (as a rule, the equilibrium dissociation constant of an inhibitor or competing ligand from its target) came to 0.4 nM in assay [2] and 0.3 nM in assay [5]. For the same compound, the EC50 – broadly, the concentration at which the effect is half-maximal – in assay [4] was 1.6 nM.

For the compound `Oc1ccc2c(ccc3cc4ccc(O)cc4c(-c4ccc(OCCN5CCCCC5)cc4)c32)c1`, the values for the IC50 in assay [1] and in assay [3] were 820 nM and 57 nM, respectively. In addition, the Ki is 0.8 nM in assay [2] and 0.5 nM in assay [5]. For the same compound, the EC50 in assay [4] amounted to 10 nM.

As for `Oc1ccc2c(c1)C(c1ccc(OCCN3CCCCC3)cc1)c1c(ccc3cc(O)ccc13)C2` (stereo not drawn), the IC50 – broadly, the point on the concentration scale where inhibition reaches its midpoint – is 130 nM in assay [1] and 6.6 nM in assay [3]. The values for the Ki in assay [2] and in assay [5] were 1 nM and 3.2 nM, respectively. The concentration for a half-maximal effect (EC50) in assay [4] is recorded as 2.6 nM.

Regarding `Oc1ccc2c(c1)Cc1sc3cc(O)ccc3c1C2c1ccc(C(O)CCN2CCCCC2)cc1` (stereo not drawn), the concentration for half-maximal inhibition (IC50) in assay [1] amounted to 45 nM; in assay [3], 0.7 nM. Further, the figures for the inhibition constant (Ki) in assay [2] and in assay [5] were 0.7 nM and 1.3 nM, respectively. For the same compound, the EC50 in assay [4] turned out to be 0.4 nM.

For `Oc1ccc2c3c(ccc2c1)Cc1c(O)cccc1C3c1ccc(OCCN2CCCCC2)cc1` (stereo not drawn), the half-inhibitory concentration (IC50) was 50 nM in assay [1] and 2.9 nM in assay [3]. The inhibition constant (Ki) in assay [2] was 1.1 nM; in assay [5], 5.4 nM. The compound also yielded an EC50 in assay [4] of 0.7 nM.

As for `Oc1ccc2c3c(sc2c1)Cc1ccccc1C3c1ccc(C(O)CCN2CCCCC2)cc1` (stereo not drawn), the IC50 was 710 nM in assay [1] and 17 nM in assay [3]. The Ki came to 2.4 nM in assay [2] and 5.3 nM in assay [5]. Besides, the EC50 in assay [4] was 3.5 nM.

In the case of `Oc1ccc2c3c(sc2c1)Cc1cccc(O)c1C3c1ccc(C(O)CCN2CCCCC2)cc1` (stereo not drawn), the half-maximal inhibitory concentration (IC50) in assay [1] is 680 nM; in assay [3], 42 nM. For the same compound, the figures for the Ki in assay [2] and in assay [5] were 2.6 nM and 14 nM, respectively. Further, the 50% effective concentration (EC50) in assay [4] was found to be 3.1 nM.

In the case of `Oc1ccc2c(c1)C(c1ccc(C(O)CCN3CCCCC3)cc1)c1c(sc3cc(O)ccc13)C2` (stereo not drawn), the values for the 50% inhibitory concentration (IC50) in assay [1] and in assay [3] were 53 nM and 0.9 nM, respectively. Also, the Ki turned out to be 0.5 nM in assay [2] and 0.9 nM in assay [5]. Also, the EC50 in assay [4] is reported as 0.9 nM.

Regarding `CCC(=C(c1ccc(O)cc1)c1ccc(OCCN(C)C)cc1)c1ccccc1`, the Ki in assay [2] and in assay [5] was 0.5 nM throughout.

On to `Oc1ccc2c3c(ccc2c1)Cc1cccc(O)c1C3c1ccc(OCCN2CCCCC2)cc1` (stereo not drawn), for which the IC50 in assay [1] was found to be 580 nM; in assay [3] it was 68 nM. For the same compound, the inhibitory constant (Ki) in assay [2] was determined as 7.7 nM; in assay [5] it was 40 nM. Moreover, in assay [4], the concentration for a half-maximal effect (EC50) is listed as 28 nM.

Regarding `Oc1ccc2c(c1)Cc1ccc3cc(O)ccc3c1C2c1ccc(OCCN2CCCCC2)cc1` (single isomer, unassigned), the Ki in assay [2] was determined as 0.7 nM; in assay [5], 4.4 nM.

Take `Oc1ccc2c(c1)Cc1ccc3cc(O)ccc3c1C2c1ccc(OCCN2CCCCC2)cc1` (stereo in doubt; form 1): the results for the inhibitory constant (Ki) in assay [2] and in assay [5] were 1.1 nM and 5.5 nM, respectively.

Turning to `Oc1ccc2c(c1)Cc1ccc3cc(O)ccc3c1C2c1ccc(OCCN2CCCCC2)cc1` (stereo in doubt; form 2), the results for the Ki in assay [2] and in assay [5] were 0.8 nM and 4.2 nM, respectively.
